The conditions of data set [1]: cited from earlier work.
In another data set the test system is unstimulated HaCaT cells. As to the kind of experiment: MTT assay, cell viability, non-inflammatory cell model. The data set is classed as cell-based. The following applies: 10 µM, incubation 48 hours, unstimulated HaCaT (non-inflammatory human keratinocytes), mean of 3 replicates. How it is done: SW982 and HaCaT cells were seeded in a 96-well plate at 10 x 10^3 cells per well. The next day, cells were incubated with TNF-a at a dose of 10 ng/ml to induce inflammation. After 24h, cells were treated with MTX or Glu-MTX at 10 µM dose and incubated for 48h. After 48 hours of incubation, the medium was decanted, and 100 µl of a solution of yellow soluble 3-(4,5-dimethyl-2-thiazolyl)-2,5-diphenyl-2H-tetrazolium bromide (MTT) at a concentration of 0.5-1 mg/ml was added. After 4 hours of incubation, the MTT solution was decanted, and 50 µl/well of DMSO was added. After 3 hours, the optical density of the dissolved formazan was analyzed colorimetrically in a BioTek plate reader.
Since living cells reduce MTT to formazan, the optical density (OD) is highest in control (C) wells which accounted for 100% of cell viability. Viability in wells incubated with compound (COMP) was calculated using the formula: X = 100% x OD COMP/OD C [formula]
Figures 1 and 2 show the results of a viability assessment study (IC50) for TNF-α-stimulated SW982 and HaCaT cell lines treated with methotrexate alone or a glucose-methotrexate (Glu-MTX) derivative. […] The test was also performed on an unstimulated HaCaT cell line, which is the counterpart of non-inflammatory human keratinocytes. […] The study used: 10 µM Glu-MTX, 10 µM Methotrexate; incubation 48 hours; MTT analysis. […]
Background: Tetrazolium dyes change colour on reduction, which living cells bring about.

For data set [2] the following is noted: cited from earlier work. The source holds these as a separate data set.

Where two headings read alike, the source gives them in different places.

In the case of `CN(Cc1nc2c(N)nc(N)nc2[nH]c1=O)c1ccc(C(=O)N[C@@H](CCC(=O)O)C(=O)O)cc1` [7-OH-MTX], in data set [1], the solubility in water result is reported as “sparingly soluble in water”.

As to `CN(Cc1cnc2nc(N)nc(N)c2n1)c1ccc(C(=O)N[C@@H](CCC(=O)O)C(=O)O)cc1` [MTX, Methotrexate], the “cytotoxicity (cell viability)” value in the data set with unstimulated HaCaT cells is on record as “much greater cytotoxicity”. The bioavailability in data set [2] (at higher doses) was 10-20%; in data set [2] (at low doses) it was “almost complete”. Moreover, the plasma half-life in data set [2] (elimination from the circulation via the kidneys) is 5 to 8 h.

Source of the values: patent EP4351590B1, “A GLUCOSE-METHOTREXATE CONJUGATE FOR USE IN PREVENTING OR TREATING AUTOIMMUNE DISEASES” (Uniwersytet Medyczny Im. Piastów Slaskich We Wroclawiu, priority 2021, dated 2022).
